For 14 molecules, activity results are on record in patent US9045423B2, “Prophylactic and/or therapeutic agent for anemia comprising tetrahydroquinoline compound as active ingredient” (KOWA COMPANY, LTD., priority 2009, dated 2015).

Structures are written as SMILES.

In assay [1] the test system is HepG2 cells derived from human liver cancer. Put plainly: EPO production in HepG2 cells (EPO ELISA of culture supernatant). The assay is classed as cell-based. The conditions noted are these: Homo sapiens; for activity at 3 µM: HepG2, 3 μM test compound, 48 hrs, 4% oxygen, non-stimulated state without compound = 100%, read-out: amount of EPO production, % of control (3 μM); for activity at 10 µM: HepG2, 48 h, final concentration 10 μM, non-stimulated state = 100%, read-out: enhancement of EPO production. As to the method: HepG2 cells derived from human liver cancer were inoculated in an amount of 5×10^4 cells per well on a 48-well plate, using minimum essential medium (MEM, Sigma-Aldrich Company) containing 10% bovine fetal serum. On the next day, the medium was exchanged with Dulbecco's modified eagle medium (DMEM (Sigma-Aldrich Company)) containing 10% bovine fetal serum without Phenol Red. Then, a test compound dissolved in DMSO was added thereto to obtain a final concentration of 3 μM or 10 μM, and the amount of medium was adjusted to 400 μL per well. The cells were incubated for 48 hrs in a CO2 incubator in which the oxygen concentration was adjusted to 4%, and then the culture supernatant was collected. The EPO concentration in the culture supernatant was immediately measured using an EPO ELISA kit (Roche Diagnostics GmbH). The method was carried out according to the operation manual.
The amount of EPO production in a non-stimulated state where no compounds were added, was designated as 100%, and the amount of EPO production (% of control) induced by each of the compounds was determined.

Assay [2] deals with K562 cells, a human proerythroblast cell line. Description: Hemoglobin production in K562 cells (fluorescence of the porphyrin ring). The assay is classed as cell-based. The conditions noted are these: Homo sapiens, K562, 144 h; 6 μM test compound, 3 + 3 days incubation; non-stimulated state without compound = 100; read-out: amount of hemoglobin, % of control (6 μM). Here is the method: K562 cells (obtained from ATCC), which is a human proerythroblast cell line, were inoculated at a concentration of 1×10^5 cells/1 mL in each well of a 24-well plate, using complete medium (RPMI-1640 medium containing 10% bovine fetal serum), and 1 μL of a test compound at a 1000-fold concentration was added to each well. Subsequently, the cells were incubated for 3 days in a CO2 incubator (37° C., 5% CO2). The medium was exchanged, and the cells were further incubated for 3 days. The cells were collected and counted. Subsequently, the amount of hemoglobin produced in the cells was determined by adjusting the number of cells to 3×10^5 cells, and measuring the fluorescence of the porphyrin ring. That is, the cells collected by centrifugation were suspended in 500 μL of 2 M oxalic acid, and were heated to boil for 30 minutes. The cells were cooled, and then the fluorescence intensity was measured by using a fluorescence microplate reader (Spectra MAX GeminiEM; Molecular Devices Corp.) ([…]). The amount of hemoglobin in a non-stimulated state where no compound was added was designated as 100-, and the amount of hemoglobin (% of control) produced as induced by each of the compounds was determined.

On to `CC(=O)N1c2ccc(C(N)=O)cc2C(Nc2ccc(-c3csc(C)n3)cc2)CC1C` (stereo not shown) [Compound 164, 1-Acetyl-2-methyl-4-{[4-(2-methylthiazol-4-yl)-phenyl]amino}-1,2,3,4-tetrahydroquinoline-6-carboxamide], for which the activity at 3 µM in assay [1] was found to be 336%. Moreover, the activity at 6 µM in assay [2] worked out at 367%.
For the molecule `CC(=O)N1c2ccccc2C(Oc2ccc(NS(C)(=O)=O)cc2)CC1C` (stereo not shown) [Compound 143, N-{4-[(1-acetyl-2-methyl-1,2,3,4-tetrahydroquinolin-4-yl)oxy]-phenyl}methanesulfonamide], the activity at 3 µM in assay [1] is 130%. For the same molecule, the activity at 6 µM in assay [2] came out at 396%.
Turning to `CC(=O)N1c2ccc(C(=O)NO)cc2C(Nc2ccc(Cl)cc2)CC1C` (stereo not shown) [Compound 129, 1-Acetyl-4-[(4-chlorophenyl)-amino]-N-hydroxy-2-methyl-1,2,3,4-tetrahydroquinoline-6-carboxamide], the activity at 3 µM in assay [1] is 125%. The activity at 6 µM in assay [2] turned out to be 136%.
Regarding `CC(=O)N1c2ccc(C(N)=O)cc2C(Nc2ccc(C3CCCCC3)cc2)CC1C` (stereo not shown) [Compound 147, 1-Acetyl-4-[(4-cyclohexylphenyl)-amino]-2-methyl-1,2,3,4-tetrahydroquinoline-6-carboxamide], the activity at 10 µM in assay [1] turned out to be 130%. In assay [2], the activity at 6 µM worked out at 160%.
Regarding `CC(=O)N1c2ccc(N3CCOCC3)cc2C(Oc2ccc(Cl)cc2)CC1C` (stereo not shown) [Compound 152, 1-Acetyl-4-(4-chloro-phenoxy)-2-methyl-6-morpholino-1,2,3,4-tetrahydroquinoline], in assay [1], the activity at 3 µM came out at 186%. For the same molecule, the activity at 6 µM in assay [2] was 337%.
The like results for `CC(=O)N1c2ccc(C(=O)O)cc2C(Nc2ccc(C3CCOCC3)cc2)CC1C` (stereo not shown) [Compound 154, 1-Acetyl-2-methyl-4-{[4-(tetrahydro-2H-pyran-4-yl)-phenyl]amino}-1,2,3,4-tetrahydroquinoline-6-carboxylic acid] were, in that order, 116% and 320%.
With `CC(=O)N1c2ccc(C(=O)O)cc2C(Nc2cccc(N3CCOCC3)c2)CC1C` (stereo not shown) [Compound 179, 1-Acetyl-2-methyl-4-[(3-morpholinophenyl)-amino]-1,2,3,4-tetrahydroquinoline-6-carboxylic acid], the activity at 3 µM in assay [1] worked out at 138%. Besides, the activity at 6 µM in assay [2] was 124%.
The like results for `CC(=O)N1c2ccc(C(=O)O)cc2C(Nc2ccc(-c3ncco3)cc2)CC1C` (stereo not shown) [Compound 168, 1-Acetyl-2-methyl-4-{[4-(oxazol-2-yl)phenyl]-amino}-1,2,3,4-tetrahydroquinoline-6-carboxylic acid] were, in that order, 144% and 204%.
For `CCOC(=O)c1ccc2c(c1)C(Nc1ccc(-c3cnns3)cc1)CC(C)N2C(C)=O` (stereo not shown) [Compound 171, Ethyl 1-Acetyl-2-methyl-4-{[4-(1,2,3-thiadiazol-5-yl)-phenyl]amino}-1,2,3,4-tetrahydroquinoline-6-carboxylate], in that order: 333% and 243%.
For `CNC(=O)c1ccc2c(c1)C(Nc1ccc(-c3cnns3)cc1)CC(C)N2C(C)=O` (stereo not shown) [Compound 174, 1-Acetyl-N,2-dimethyl-4-{[4-(1,2,3-thiadiazol-5-yl)-phenyl]amino}-1,2,3,4-tetrahydroquinoline-6-carboxamide], in that order: 218% and 163%.
With `CC(=O)N1c2ccc(F)cc2C(Nc2ccc(C(=O)O)cc2)CC1C` (stereo not shown) [Compound 137, 1-Acetyl-6-fluoro-4-[(4-carboxy-phenyl)amino]-2-methyl-1,2,3,4-tetrahydroquinoline], in assay [1], the activity at 3 µM was 110%. Besides, the activity at 6 µM in assay [2] is 190%.
As to `COC(=O)CCCCCNC(=O)c1ccc2c(c1)C(Nc1ccc(N3CCOCC3)cc1)CC(C)N2C(C)=O` (stereo not shown) [Compound 157, Methyl 6-{1-Acetyl-2-methyl-4-[(4-morpholinophenyl)-amino]-1,2,3,4-tetrahydro-quinoline-6-carboxamido}-hexanoate], the activity at 10 µM in assay [1] came out at 237%. For the same molecule, in assay [2], the activity at 6 µM is 396%.
As to `CC(=O)N1c2ccc(C(=O)Nc3ccccc3)cc2C(Nc2ccc(Cl)cc2)CC1C` (stereo not shown) [Compound 130, 1-Acetyl-4-[(4-chlorophenyl)-amino]-2-methyl-N-phenyl-1,2,3,4-tetrahydroquinoline-6-carboxamide], the activity at 3 µM in assay [1] amounted to 133%. Moreover, in assay [2], the activity at 6 µM was 172%.
As for `CC(=O)N1c2ccc(C(N)=O)cc2C(Nc2ccc(-c3ncco3)cc2)CC1C` (stereo not shown) [Compound 169, 1-Acetyl-2-methyl-4-{[4-(oxazol-2-yl)phenyl]amino}-1,2,3,4-tetrahydroquinoline-6-carboxamide], the activity at 10 µM in assay [1] amounted to 120%. Moreover, the activity at 6 µM in assay [2] was 243%.
